Experimental findings from US11684623B2, “Soluble melatonin tripartate adduct for the prevention and treatment of rare and severe eye sight-threatening conditions and neuro-ophthalmic disorders” (WORPHMED SRL, priority 2020, dated 2023) are described below.

The nature of this series: Solubility in water according to USP and EP. Type of series: physicochemical. The source says:
wherein melatonin is complexed with adenosine and glycine. Adenosine is a purine nucleoside consisting of adenine attached to a ribofuranose moiety via a β-N9-glycosidic bond and the low-chain amino acid glycine is a C2 amino acid having a single hydrogen atom as its side chain.

Regarding `COc1ccc2[nH]cc(CCNC(C)=O)c2c1` [melatonin, N-acetyl-5-methoxytryptamine], the “Solubility in water, Results” value was 0.1 mg/1.0 ml.
